Measured values reported in US8455475B2 (Gruenenthal GmbH, priority 2009, dated 2013).

Assays:
[1] = target: T1, human B1R (bradykinin receptor 1) (Homo sapiens, UniProt P46663); experiment: FLIPR Ca2+ assay (Fluo-4) on CHO K1 cells stably transfected with the human B1R gene (hB1R cells): % inhibition at 10 μM / IC50, agonist Lys-Des-Arg9-bradykinin; type: cell-based; conditions: for inhibition at 10 µM: CHO-K1, human B1R
T1 construct: expressed in transfected cells; host or cells: CHO K1 cells
T1 sequence (P46663 1-353): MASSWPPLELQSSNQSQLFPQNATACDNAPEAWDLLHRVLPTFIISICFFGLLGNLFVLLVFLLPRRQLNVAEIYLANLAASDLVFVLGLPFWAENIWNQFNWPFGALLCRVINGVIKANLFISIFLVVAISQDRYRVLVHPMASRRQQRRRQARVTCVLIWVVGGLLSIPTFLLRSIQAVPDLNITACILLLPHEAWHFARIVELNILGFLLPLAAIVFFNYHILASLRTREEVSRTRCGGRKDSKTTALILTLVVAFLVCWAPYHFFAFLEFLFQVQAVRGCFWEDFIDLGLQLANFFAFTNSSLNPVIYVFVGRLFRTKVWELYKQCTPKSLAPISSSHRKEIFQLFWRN
Protocol: The agonistic or antagonistic action of substances can be quantified on the bradykinin receptor 1 (B1R) of the human and rat species with ectopically expressing cell lines (CHO K1 cells) and with the aid of a Ca^2+-sensitive dyestuff (Fluo-4) in a fluorescent imaging plate reader (FLIPR). The figure in % activation is based on the Ca^2+ signal after addition of Lys-Des-Arg^9-bradykinin (0.5 nM) or Des-Arg^9-bradykinin (100 nM). Antagonists lead to a suppression of the Ca^2+ inflow after addition of the agonist. % inhibition compared with the maximum achievable inhibition is stated.
The agonistic or antagonistic action of substances can be determined on the bradykinin receptor 1 (B1R) of the human and rat species with the following assay. In accordance with this assay, the Ca^2+ inflow through the channel is quantified with the aid of a Ca^2+-sensitive dyestuff (type Fluo-4, Molecular Probes Europe BV, Leiden, Holland) in a fluorescent imaging plate reader (FLIPR, Molecular Devices, Sunnyvale, USA).
Chinese hamster ovary cells (CHO K1 cells) transfected stably with the human B1R gene (hB1R cells) or the B1R gene of the rat (rB1R cells) are used. For functional studies, these cells are plated out on black 96-well plates with a clear base (BD Biosciences, Heidelberg, Germany or Greiner, Frickenhausen, Germany) in a density of 20,000-35,000 cells/well. The cells are left overnight at 37° C. and 5% CO2 in culture medium (hB1R cells: Nutrient Mixture Ham's F12, Gibco Invitrogen GmbH, Karlsruhe, Germany or DMEM, Sigma-Aldrich, Taufkirchen, Germany; rB1R cells: D-MEM/F12, Gibco Invitrogen GmbH, Karlsruhe, Germany) with 10 vol. % FBS (foetal bovine serum, Gibco Invitrogen GmbH, Karlsruhe, Germany or PAN Biotech GmbH, Aidenbach, Germany). On the following day, the cells are loaded for 60 min at 37° C. with 2.13 μM Fluo-4 (Molecular Probes Europe BV, Leiden Holland) in HBSS buffer (Hank's buffered saline solution, Gibco Invitrogen GmbH, Karlsruhe, Germany) with 2.5 mM probenecid (Sigma-Aldrich, Taufkirchen, Germany) and 10 mM HEPES (Sigma-Aldrich, Taufkirchen, Germany). The plates are then washed 2× with HBSS buffer, and HBSS buffer which additionally contains 0.1% BSA (bovine serum albumin; Sigma-Aldrich, Taufkirchen, Germany), 5.6 mM glucose and 0.05% gelatine (Merck KGaA, Darmstadt, Germany) is added. After a further incubation of 20 minutes at room temperature, the plates are inserted into the FLIPR for the Ca^2+ measurement. Alternatively, the plates are washed with buffer A (15 mM HEPES, 80 mM NaCl, 5 mM KCl, 1.2 mM CaCl2, 0.7 mM MgSO4, 2 g/l glucose, 2.5 mM probenecid), buffer A is added and the plates are loaded with 2.5 μM Fluo-4 and 0.025% Pluronic F127 (Sigma-Aldrich, Taufkirchen, Germany). Thereafter, the cells are washed 2× with buffer A and incubated for 30 minutes at room temperature with buffer A, which additionally contains 0.05% BSA and 0.05% gelatine, and thereafter inserted into the FLIPR for the Ca^2+ measurement. The Ca^2+-dependent fluorescence is measured here before and after addition of substances (λex=488 nm, λem=540 nm). Quantification is by measurement of the highest fluorescence intensity (FC, fluorescence counts) over time.
The FLIPR protocol consists of 2 additions of substance. Test substances (10 μM) are first pipetted on to the cells and the Ca^2+ inflow is compared with the control (hB1R: Lys-Des-Arg^9-bradykinin>=50 nM; rB1R: Des-Arg^9-bradykinin 10 μM). This gives the result in % activation based on the Ca^2+ signal after addition of Lys-Des-Arg^9-bradykinin (>=50 nM) or Des-Arg^9-bradykinin (10 μM). After incubation for 10-20 minutes, Lys-Des-Arg^9-bradykinin (hB1R) or Des-Arg^9-bradykinin (rB1R) in the concentration of the EC80 is applied and the inflow of Ca^2+ is likewise determined. Antagonists lead to a suppression of the Ca^2+ inflow. % inhibition compared with the maximum achievable inhibition is calculated.
For determination of the IC50 value, the substances are added in various concentrations. […]

[2] = target: T2, rat B1R (bradykinin receptor 1) (Rattus norvegicus, UniProt P97583); experiment: FLIPR Ca2+ assay (Fluo-4) on CHO K1 cells stably transfected with the B1R gene of the rat (rB1R cells): % inhibition at 10 μM / IC50, agonist Des-Arg9-bradykinin; type: cell-based; conditions: for inhibition at 10 µM: CHO-K1, rat B1R
T2 construct: expressed in transfected cells; host or cells: CHO K1 cells
T2 sequence (P97583 1-337): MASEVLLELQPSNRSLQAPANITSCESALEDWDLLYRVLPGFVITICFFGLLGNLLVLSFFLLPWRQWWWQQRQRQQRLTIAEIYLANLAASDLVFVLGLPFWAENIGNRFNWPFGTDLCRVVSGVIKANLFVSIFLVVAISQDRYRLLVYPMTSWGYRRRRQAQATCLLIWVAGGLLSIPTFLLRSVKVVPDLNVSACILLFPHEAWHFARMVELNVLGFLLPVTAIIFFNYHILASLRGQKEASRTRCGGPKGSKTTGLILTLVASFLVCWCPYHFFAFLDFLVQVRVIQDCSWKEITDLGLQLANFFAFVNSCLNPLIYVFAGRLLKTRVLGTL
How it was run: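 Stably transfected CHO K1 cells loaded with Fluo-4 and read on FLIPR (λex 488, λem 540 nm; peak fluorescence). Test substance (10 μM) added first, then after 10–20 min the agonist at EC80; % inhibition versus maximum achievable inhibition. IC50 from several concentrations, n=2–3, N≥2.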

inhibition at 10 µM [1] | inhibition at 10 µM [2] | Compound | also measured
 |  | 2-Chloro-N-[2,2-dimethyl-6-(9-pyridin-4-yl-3,9-diazaspiro[5.5]undecane-3-carbonyl)-1,3-dihydro-inden-1-yl]-3-(trifluoromethyl)-benzamide [IND_CC-234] | % Inhibition (human B1R) at 10 μM [1]: 85%; % Inhibition (rat B1R) at 10 μM [2]: 99%
 |  | 2-Chloro-N-[6-(2-pyridin-4-yl-2,8-diazaspiro[4.5]decane-8-carbonyl)-2,3-dihydro-1H-inden-1-yl]-6-(trifluoromethyl)-benzamide [IND_CC-205] | % Inhibition (human B1R) at 10 μM [1]: 100%; % Inhibition (rat B1R) at 10 μM [2]: 103%
100% | 97% | O=C(c1ccc2c(c1)C(N1Cc3cccc(Cl)c3C1=O)CC2)N1CCC2(CC1)CCN(c1ccncc1)CC2 (centres unmarked) [Example H-01, 7-chloro-2-[6-(9-pyridin-4-yl-3,9-diazaspiro[5.5]undecane-3-carbonyl)-2,3-dihydro-1H-indan-1-yl]-2,3-dihydro-isoindol-1-one] | 
 |  | O=C(NC1CCc2ccc(C(=O)N3CCC4(CC3)CCN(c3ccncc3)CC4)cc21)c1ccccc1Cl (centres unmarked) [Example H-02, 2-chloro-N-[6-(3-pyridin-4-yl-3,9-diazaspiro[5.5]undecane-9-carbonyl)-2,3-dihydro-1H-inden-1-yl]-benzamide] | % Inhibition (human B1R) at 10 μM ([1]; 10 µM): 100%; % Inhibition (rat B1R) at 10 μM ([2]; 10 µM): 100%
 |  | COc1cc(C)c(S(=O)(=O)NC2CCc3ccc(C(=O)N4CCC5(CC4)CCN(c4ccncc4)CC5)cc32)c(C)c1 (centres unmarked) [Example H-03, 4-methoxy-2,6-dimethyl-N-[6-(9-pyridin-4-yl-3,9-diazaspiro[5.5]undecane-3-carbonyl)-2,3-dihydro-1H-inden-1-yl)-benzenssulfonic acid amide] | % Inhibition (human B1R) at 10 μM ([1]; 10 µM): 98%; % Inhibition (rat B1R) at 10 μM ([2]; 10 µM): 104%
100% | 106% | O=C(NC1CCc2ccc(C(=O)N3CCC4(CCN(c5ccncc5)C4)C3)cc21)c1ccccc1Cl (centres unmarked) [Example H-04, 2-chloro-N-[6-(8-pyridin-4-yl-3,8-diazaspiro[4.4]nonane-3-carbonyl)-2,3-dihydro-1H-inden-1-yl]-benzamide] | 
 |  | O=C(NC1CCc2ccc(C(=O)N3CCC4(CCN(c5ccncc5)CC4)C3)cc21)c1ccccc1Cl (centres unmarked) [Example H-05, 2-chloro-N-[6-(8-pyridin-4-yl-3,8-diazaspiro[4.5]decane-3-carbonyl)-2,3-dihydro-1H-inden-1-yl]-benzamide] | % Inhibition (human B1R) at 10 μM [1]: 100%; % Inhibition (rat B1R) at 10 μM ([2]; 10 µM): 105%
60% | 98% | O=C(NC1CCc2ccc(C(=O)N3CCC4(CCC(N5CCC5)CC4)CC3)cc21)c1ccccc1Cl (centres unmarked) [Example H-06, N-[6-[9-(azetidin-1-yl)-3-azaspiro[5.5]undecane-3-carbonyl)-2,3-dihydro-1H-indan-1-yl]-2-chloro-benzamide] | 
34% | 69% | O=C(NC1CCc2ccc(C(=O)N3CCC4(CCC(N5CC(F)(F)C5)CC4)CC3)cc21)c1ccccc1Cl (centres unmarked) [Example H-07, 2-chloro-N-[6-[9-(3,3-difluoro-azetidin-1-yl)-3-azaspiro[5.5]undecane-3-carbonyl]-2,3-dihydro-1H-inden-1-yl]-benzamide] | 
71% | 100% | O=C(NC1CCc2ccc(C(=O)N3CCC4(CCC(Oc5ccncc5)CC4)CC3)cc21)c1ccccc1Cl (centres unmarked) [Example H-08] | 
100% | 102% | O=C(N[C@@H]1CCCc2ccc(C(=O)N3CCC4(CC3)CCN(c3ccncc3)CC4)cc21)c1ccccc1Cl [Example H-09, 2-chloro-N-[(1R)-7-(9-pyridin-4-yl-3,9-diazaspiro[5.5]undecane-3-carbonyl)-1,2,3,4-tetrahydro-naphthalen-1-yl]-benzamide] | 
49% | 103% | O=C(N[C@H]1CCCc2ccc(C(=O)N3CCC4(CC3)CCN(c3ccncc3)CC4)cc21)c1ccccc1Cl [Example H-10, 2-chloro-N-[(1S)-7-(9-pyridin-4-yl-3,9-diazaspiro[5.5]undecane-3-carbonyl)-1,2,3,4-tetrahydro-naphthalen-1-yl]-benzamide] | 
99% | 103% | O=C(N[C@@H]1CCCc2ccc(C(=O)N3CCC4(CCN(c5ccncc5)CC4)C3)cc21)c1ccccc1Cl [Example H-11, 2-chloro-N-[(1R)-7-(8-pyridin-4-yl-3,8-diazaspiro[4.5]decane-3-carbonyl]-1,2,3,4-tetrahydro-naphthalen-1-yl]-benzamide] | 
97% | 102% | O=C(N[C@H]1CCCc2ccc(C(=O)N3CCC4(CCN(c5ccncc5)CC4)C3)cc21)c1ccccc1Cl [Example H-12, 2-chloro-N-[(1S)-7-(8-pyridin-4-yl-3,8-diazaspiro[4.5]decane-3-carbonyl]-1,2,3,4-tetrahydro-naphthalen-1-yl]-benzamide] | 
100% | 101% | O=C(c1ccc2c(c1)[C@H](N1Cc3cccc(Cl)c3C1=O)CCC2)N1CCC2(CCN(c3ccncc3)CC2)C1 [Example H-13, 7-chloro-2-[(1R)-7-(8-pyridin-4-yl-3,8-diazaspiro[4.5]decane-3-carbonyl)-1,2,3,4-tetrahydro-naphthalen-1-yl]-2,3-dihydro-isoindol-1-one] | 
91% | 101% | O=C(c1ccc2c(c1)[C@H](N1Cc3cccc(Cl)c3C1=O)CCC2)N1CCC2(CC1)CCN(c1ccncc1)CC2 [Example H-14, 7-chloro-2-[(1R)-7-(9-pyridin-4-yl-3,9-diazaspiro[5.5]undecane-3-carbonyl)-1,2,3,4-tetrahydro-naphthalen-1-yl]-2,3-dihydro-isoindol-1-one] | 
